Laboratory results as given in patent US11076595B2, “1-(n,n-disubstituted carbamoyl) 4-(substituted sulfonyl)triazolin-5-one derivative, 4-(n,n-disubstituted carbamoyl) 1-(substituted sulfonyl)triazolin-5-one derivative, and herbicide containing said derivative as active ingredient” (HOKKO CHEMICAL INDUSTRY CO., LTD., priority 2017, dated 2021).

Key:
Format in all cases: in vivo
Scirpus juncoides [1] = assay: Test Example 11: herbicidal effect test by soil treatment in paddy field; conditions: 120 g/10a active ingredient, 14 days after treatment
Procedure, shortened: (§1)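 Seeds were sown 0-1 cm deep in puddled, fertilised paddy soil in Wagner pots and kept under about 3 cm of flooding in a greenhouse. Diluted emulsifiable concentrate was added dropwise right after sowing at 120 g a.i. per 10 are. Suppression (%) came from dry weight versus untreated pots after 14 days, two replicates.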

Lindernia pyxidaria [2] = assay: as above; conditions: 120 g/10a active ingredient, 14 days after treatment
Procedure, shortened: as §1

Echinochloa crus-galli [3] = assay: as above; conditions: 120 g/10a active ingredient, 14 days after treatment
Procedure, shortened: as §1

Monochoria vaginalis [4] = assay: as above; conditions: 120 g/10a active ingredient, 14 days after treatment
Procedure, shortened: as §1

Scirpus juncoides [5] = assay: Test Example 12: herbicidal effect test by treatment during growing period in paddy field; conditions: 120 g/10a; treatment seven days after sowing in flooded paddy pot; assessed 14 days after treatment
Procedure, shortened: (§2)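 Read-out: weed suppression (%) = (1 − treated/untreated mean dry weight) × 100, scored 14 days after treatment with two replications. Pots held puddled paddy soil, 30 seeds per species sown 0–1 cm, flooded ~3 cm. Post-emergence dropwise water application at 7 days after sowing, 120 g a.i./10 are.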

Lindernia pyxidaria [6] = assay: as above; conditions: 120 g/10a; treatment seven days after sowing in flooded paddy pot; assessed 14 days after treatment
Procedure, shortened: as §2

Echinochloa crus-galli [7] = assay: as above; conditions: 120 g/10a; treatment seven days after sowing in flooded paddy pot; assessed 14 days after treatment
Procedure, shortened: as §2

Monochoria vaginalis [8] = assay: as above; conditions: 120 g/10a; treatment seven days after sowing in flooded paddy pot; assessed 14 days after treatment
Procedure, shortened: as §2

Chenopodium album [9] = assay: Test Example 13: herbicidal effect test by soil treatment in upland field; conditions: 120 g/10a, 14 days after treatment
Procedure, shortened: (§3)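 Pre-emergence soil treatment: alluvial soil pots (36 cm^2) sown with 20 seeds per weed species, sprayed one day later with water-diluted emulsifiable concentrate at 100 liter per 10 are, equal to 120 g active ingredient per 10 are. Two replicates; weed suppression (%) from dry weight versus untreated plots at 14 days.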

Echinochloa crus-galli [10] = assay: as above; conditions: 120 g/10a, 14 days after treatment
Procedure, shortened: as §3

crabgrass [11] = assay: as above; conditions: 120 g/10a, 14 days after treatment
Procedure, shortened: as §3

Amaranthus viridis [12] = assay: as above; conditions: 120 g/10a, 14 days after treatment
Procedure, shortened: as §3

Chenopodium album [13] = assay: Test Example 14: herbicidal effect test by foliage treatment in upland field; conditions: 7 days after sowing, 120 g/10a, 14 days after treatment
Procedure, shortened: (§4)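 Dry-weight read-out: suppression (%) = (1 − mean treated dry weight/mean untreated dry weight)×100, at 14 days post-spray, two replicate plots per concentration. Spray applied 7 days after sowing, 120 g a.i. per 10 are.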

crabgrass [14] = assay: as above; conditions: 7 days after sowing, 120 g/10a, 14 days after treatment
Procedure, shortened: as §4

Echinochloa crus-galli [15] = assay: as above; conditions: 7 days after sowing, 120 g/10a, 14 days after treatment
Procedure, shortened: as §4

Amaranthus viridis [16] = assay: as above; conditions: 7 days after sowing, 120 g/10a, 14 days after treatment
Procedure, shortened: as §4

| Structure (SMILES) | Weed suppression rate (%) Scirpus juncoides (Scirpus juncoides [1]) [%] | Weed suppression rate (%) Lindemia pyxidaria (Lindernia pyxidaria [2]) [%] | Weed suppression rate (%) Echinochloa crus-galli (Echinochloa crus-galli [3]) [%] | Weed suppression rate (%) Monochoria vaginalis (Monochoria vaginalis [4]) [%] | Weed suppression rate (%) Scirpus juncoides (Scirpus juncoides [5]) [%] | Weed suppression rate (%) Lindemia pyxidaria (Lindernia pyxidaria [6]) [%] | Weed suppression rate (%) Echinochloa crus-galli (Echinochloa crus-galli [7]) [%] | Weed suppression rate (%) Monochoria vaginalis (Monochoria vaginalis [8]) [%] | herbicidal effect, Chenopodium album (Chenopodium album [9]) [%] | herbicidal effect, Echinochloa crus-galli (Echinochloa crus-galli [10]) [%] | herbicidal effect, Crabgrass (crabgrass [11]) [%] | herbicidal effect, Amaranthus viridis (Amaranthus viridis [12]) [%] | herbicidal effect, Chenopodium album (Chenopodium album [13]) [%] | herbicidal effect, Crabgrass (crabgrass [14]) [%] | herbicidal effect, Echinochloa crus-galli (Echinochloa crus-galli [15]) [%] | herbicidal effect, Amaranthus viridis (Amaranthus viridis [16]) [%] |
| --- | --- | --- | --- | --- | --- | --- | --- | --- | --- | --- | --- | --- | --- | --- | --- | --- |
| Cc1ccc(S(=O)(=O)n2ncn(C(=O)N(c3ccc(F)cc3F)C(C)C)c2=O)cc1 [Compound 11-637] | 90 | 100 | 100 | 100 | 90 | 90 | 100 | 90 | 40 | 100 | 90 | 40 | 0 | 80 | 80 | 0 |
| Cc1ccc(S(=O)(=O)n2ncn(C(=O)N(c3ccc(F)cc3Cl)C(C)C)c2=O)cc1 [Compound 11-644] | 90 | 80 | 90 | 80 | 90 | 80 | 90 | 80 | 80 | 80 | 90 | 90 | 80 | 90 | 80 | 90 |
| CCc1ccc(S(=O)(=O)n2ncn(C(=O)N(c3ccc(F)cc3F)C(C)C)c2=O)cc1 [Compound 11-666] | 90 | 90 | 100 | 90 | 90 | 90 | 100 | 90 | 100 | 100 | 90 | 40 | 40 | 90 | 90 | 40 |
| CC(C)N(C(=O)n1cnn(S(=O)(=O)c2ccc(C(C)(C)C)cc2)c1=O)c1ccc(Cl)cn1 [Compound 11-706] | 90 | 100 | 100 | 80 | 70 | 80 | 80 | 80 | 50 | 80 | 80 | 50 | 40 | 50 | 0 | 70 |
| CC(C)N(C(=O)n1cnn(S(=O)(=O)c2c(F)cccc2F)c1=O)c1ccccc1 [Compound 11-762] | 40 | 90 | 90 | 90 | 80 | 60 | 80 | 90 | 60 | 80 | 90 | 60 | 60 | 90 | 90 | 70 |
| CC(C)N(C(=O)n1cnn(S(=O)(=O)c2c(F)c(F)c(F)c(F)c2F)c1=O)c1ccccc1 [Compound 11-800] | 90 | 90 | 90 | 80 | 90 | 60 | 90 | 90 | 70 | 60 | 90 | 70 | 100 | 90 | 90 | 100 |
| Cc1cc(C)c(S(=O)(=O)n2ncn(C(=O)N(c3ccccc3)C(C)C)c2=O)c(C)c1 [Compound 11-852] | 90 | 90 | 100 | 90 | 90 | 90 | 80 | 90 | 60 | 80 | 80 | 60 | 70 | 90 | 60 | 60 |
| Cc1cc(C)c(S(=O)(=O)n2ncn(C(=O)N(c3ccc(F)cc3F)C(C)C)c2=O)c(C)c1 [Compound 11-863] | 100 | 100 | 100 | 100 | 90 | 90 | 90 | 90 | 50 | 60 | 70 | 50 | 70 | 60 | 70 | 50 |
| Cc1cc(C)c(S(=O)(=O)n2ncn(C(=O)N(c3ccc(F)cc3Cl)C(C)C)c2=O)c(C)c1 [Compound 11-870] | 90 | 80 | 90 | 80 | 90 | 80 | 90 | 80 | 80 | 80 | 90 | 90 | 80 | 90 | 80 | 90 |
| Cc1cc(C)c(S(=O)(=O)n2ncn(C(=O)N(c3ccc(F)cc3C)C(C)C)c2=O)c(C)c1 [Compound 11-876] | 100 | 100 | 100 | 100 | 100 | 100 | 100 | 100 | 100 | 100 | 100 | 70 | 30 | 100 | 90 | 30 |
